Test results taken from patent US12724034B2, “Tryptophan optical probe, preparation method therefor and use thereof” (priority 2020, dated 2026).

Columns and labels:
[1] = target: T1, Streptococcus pneumoniae tryptophan-binding protein 31ft (SEQ ID NO: 1) with cpYFP inserted at 263/266, optical sensor 31ft-263/266-cpYFP, SEQ ID NO: 7 (Streptococcus pneumoniae, UniProt A0A0H2UPV6, DELINS312-313[…]); details: for response to amino acid (specific detection): specificity, FIG. 7
T1 construct: His-tag; E. coli JM109(DE3), nickel-purified
Protocol: (§1) 3. The centrifuged supernatant was purified by a self-packed nickel-column affinity chromatography column to obtain the protein, and the protein after nickel-column affinity chromatography was then passed through a self-packed desalting column to obtain the protein dissolved in 100 mM HEPES buffer (pH 7.4).

[2] = target: T2, Streptococcus pneumoniae tryptophan-binding protein 31ft (SEQ ID NO: 1) with cpYFP inserted at 263/265, optical sensor 31ft-263/265-cpYFP, SEQ ID NO: 6 (Streptococcus pneumoniae, UniProt A0A0H2UPV6, DELINS312-312[…]); details: for response to amino acid (specific detection): specificity, FIG. 7
T2 construct: His-tag; pCDF, E. coli JM109(DE3), nickel-column purified
Protocol: as §1

[3] = target: T3, Streptococcus pneumoniae tryptophan-binding protein 31ft (SEQ ID NO: 1) with cpGFP (SEQ ID NO: 3) inserted at 263/267 (Streptococcus pneumoniae, UniProt A0A0H2UPV6, DEL312-314); experiment: Tryptophan response screening, disrupted supernatant, cpGFP 263/267; type: biochemical; details: method of Example 2 (1 mM tryptophan)
T3 construct: E. coli disrupted supernatant
Protocol: (§2) Tryptophan response screening was performed with disrupted supernatants of E. coli expressing the 31ft-cpYFP fusion protein, and the detection signal of the fusion fluorescent protein containing 1 mM tryptophan was divided by the detection signal of the fusion fluorescent protein without tryptophan.
(§3) According to the method in Example 2, cpYFP was replaced with cpGFP to construct a tryptophan green fluorescent protein fluorescent sensor.

[4] = target: T4, Streptococcus pneumoniae tryptophan-binding protein 31ft with cpYFP inserted at 263/266, mutant T259F, optical sensor 31ft-263/266-cpYFP-T259F, SEQ ID NO: 31 (Streptococcus pneumoniae, UniProt A0A0H2UPV6, DELINS312-313[…]/T307F); experiment: Fluorescence spectra and tryptophan response of purified 31ft-263/266-cpYFP-T259F; type: biochemical
T4 construct: His-tag; E. coli, purified
Protocol: 6. […] The determination of the absorption spectrum and fluorescence spectrum of the sample is completed by a spectrophotometer and a fluorescence spectrophotometer.
Detection of fluorescence spectra was performed using a fluorescence spectrophotometer after subjecting purified tryptophan optical sensor 31ft-263/266-cpYFP-T259F to 0 mM and 1 mM tryptophan treatments for 10 min, respectively.
Determination of emission spectra: excitation spectra were recorded with an fixed excitation wavelength of 420 nm and 485 nm and an emission range of 470-600 nm and 490-600 nm, read every 5 nm.

[5] = target: tryptophan optical sensor (Streptococcus pneumoniae tryptophan-binding protein 31ft fusion) (Streptococcus pneumoniae, UniProt A0A0H2UPV6); experiment: Highest response of the tryptophan optical sensor provided in this application; type: biochemical
[6] = target: T5, Streptococcus pneumoniae tryptophan-binding protein 31ft (SEQ ID NO: 1) with cpGFP (SEQ ID NO: 3) inserted at 263/265 (Streptococcus pneumoniae, UniProt A0A0H2UPV6, DEL312-312); experiment: Tryptophan response screening, disrupted supernatant, cpGFP 263/265; type: biochemical; details: method of Example 2 (1 mM tryptophan)
T5 construct: E. coli disrupted supernatant
Protocol: as §2, §3

[7] = target: T6, Streptococcus pneumoniae tryptophan-binding protein 31ft (SEQ ID NO: 1) with cpYFP inserted at 263/267, SEQ ID NO: 8 (Streptococcus pneumoniae, UniProt A0A0H2UPV6, DELINS312-314[…]); experiment: Tryptophan response screening, disrupted supernatant, cpYFP 263/267; type: biochemical; details: 1 mM tryptophan, disrupted supernatant of E. coli
T6 construct: His-tag; E. coli JM109(DE3), disrupted supernatant
Protocol: as §2

[8] = target: T7, Streptococcus pneumoniae tryptophan-binding protein 31ft (SEQ ID NO: 1) with cpYFP inserted at 263/266, SEQ ID NO: 7 (Streptococcus pneumoniae, UniProt A0A0H2UPV6, DELINS312-313[…]); experiment: Tryptophan response screening, disrupted supernatant, cpYFP 263/266; type: biochemical; details: 1 mM tryptophan, disrupted supernatant of E. coli
T7 construct: His-tag; E. coli JM109(DE3), disrupted supernatant
Protocol: as §2

[9] = target: T8, Streptococcus pneumoniae tryptophan-binding protein 31ft (SEQ ID NO: 1) with cpYFP inserted at 263/265, SEQ ID NO: 6 (Streptococcus pneumoniae, UniProt A0A0H2UPV6, DELINS312-312[…]); experiment: Tryptophan response screening, disrupted supernatant, cpYFP 263/265; type: biochemical; details: 1 mM tryptophan, disrupted supernatant of E. coli
T8 construct: His-tag; pCDF, E. coli JM109(DE3) disrupted supernatant
Protocol: as §2

[10] = target: T9, Streptococcus pneumoniae tryptophan-binding protein 31ft (SEQ ID NO: 1) with cpYFP inserted at 263/268, optical sensor 31ft-263/268-cpYFP, SEQ ID NO: 9 (Streptococcus pneumoniae, UniProt A0A0H2UPV6, DELINS312-315[…]); experiment: Titration and specificity detection, purified sensor 31ft-263/268-cpYFP; details: 420/485 fluorescence ratio, concentration gradient tryptophan
T9 construct: His-tag; E. coli JM109(DE3), nickel-purified
Protocol: as §1

[11] = target: T10, Streptococcus pneumoniae tryptophan-binding protein 31ft (SEQ ID NO: 1) with cpGFP (SEQ ID NO: 3) inserted at 263/268 (Streptococcus pneumoniae, UniProt A0A0H2UPV6, DEL312-315); experiment: Tryptophan response screening, disrupted supernatant, cpGFP 263/268; type: biochemical; details: method of Example 2 (1 mM tryptophan)
T10 construct: E. coli disrupted supernatant
Protocol: as §2, §3

[12] = target: T11, Streptococcus pneumoniae tryptophan-binding protein 31ft (SEQ ID NO: 1) with cpYFP inserted at 263/268, SEQ ID NO: 9 (Streptococcus pneumoniae, UniProt A0A0H2UPV6, DELINS312-315[…]); experiment: Tryptophan response screening, disrupted supernatant, cpYFP 263/268; type: biochemical; details: 1 mM tryptophan, disrupted supernatant of E. coli
T11 construct: His-tag; E. coli JM109(DE3), disrupted supernatant
Protocol: as §2

[13] = system: Streptococcus pneumoniae 31ft-cpYFP optical sensor mutants L84F, F202W, K214F, K214W, Y217F, Y217W, K255F, K255W, T259F, T259W, I283F and I283W; experiment: Fluorescence detection of purified mutated cpYFP optical sensors; type: biochemical; details: purified proteins; FIG. 8
Protocol: The plasmids pCDF-31ft-263/265-cpYFP, pCDF-31ft-263/266-cpYFP, pCDF-31ft-263/267-cpYFP were linearized by PCR with the primers containing the base sequence of the desired mutation site.
Phosphorus was added to the obtained PCR products under the action of PNK, T4 DNA ligase and PEG4000, thereby obtaining mutant plasmids of 15 sites of H13, T71, L84, D93, K105, N117, T130, V170, V192, F202, K214, Y217, K255, T259, 1283, and the sequencing was completed by Jie Li Sequencing Company. An exemplary nucleic acid sequence is set forth in SEQ ID NO:40 (263/266-T259F).

[14] = system: HeLa cells; experiment: Dynamic monitoring of tryptophan transmembrane transport in HeLa cells expressing the optical sensor in the cytosol; type: cell-based; details: 1 mM tryptophan, 30 min, HBSS
Protocol: 1. The pCDNA3.1+-based tryptophan optical sensor plasmid was transfected into HeLa by the transfection reagent Lipofectamine2000 (Invitrogen), and cultured in a cell incubator at 37° C., 5% CO2. Fluorescence detection was performed 24-36 h after the exogenous gene was fully expressed.
2. After induction of expression, adherent HeLa cells were washed three times with PBS and placed in HMS solution for fluorescence microscopy and microplate reader assays, respectively.
Add 1 mM tryptophan and continue the assay for 30 minutes.

[15] = target: T12, Streptococcus pneumoniae tryptophan-binding protein 31ft (SEQ ID NO: 1) with cpYFP inserted at 263/267, optical sensor 31ft-263/267-cpYFP, SEQ ID NO: 8 (Streptococcus pneumoniae, UniProt A0A0H2UPV6, DELINS312-314[…]); experiment: Titration and specificity detection, purified sensor 31ft-263/267-cpYFP; details: 420/485 fluorescence ratio, concentration gradient tryptophan
T12 construct: His-tag; E. coli JM109(DE3), nickel-purified
Protocol: as §1

[16] = target: T13, Streptococcus pneumoniae tryptophan-binding protein 31ft (SEQ ID NO: 1) with cpGFP (SEQ ID NO: 3) inserted at 263/266 (Streptococcus pneumoniae, UniProt A0A0H2UPV6, DEL312-313); experiment: Tryptophan response screening, disrupted supernatant, cpGFP 263/266; type: biochemical; details: method of Example 2 (1 mM tryptophan)
T13 construct: E. coli disrupted supernatant
Protocol: as §2, §3

[17] = 420/485 fluorescence ratio, concentration gradient tryptophan

Compound | response to amino acid (specific detection) [1] | response to amino acid (specific detection) [2] | change amplitude [1, 17] | change amplitude [2, 17] | response to tryptophan [3] | decrease in fluorescence intensity under excitation at 460 nm, compared to 0 mM tryptophan ([4]; 1 mM tryptophan, 10 min) | fluorescence intensity excited at 420 nm, relative to 0 mM tryptophan ([4]; 1 mM tryptophan, 10 min) | response to tryptophan ([4]; purified protein) | highest response to tryptophan, increase of the control [5] | response to tryptophan [6] | response to tryptophan (signal with / without tryptophan) [7] | response to tryptophan (signal with / without tryptophan) [8] | response to tryptophan (signal with / without tryptophan) [9] | change amplitude [10] | response to tryptophan [11] | response to tryptophan (signal with / without tryptophan) [12] | response to tryptophan [13] | highest 485/420 ratio relative to the initial value [14] | change amplitude [15] | response to tryptophan [16]
N[C@@H](Cc1ccccc1)C(=O)O [phenylalanine] | 1.34 times | 1.37 times | – | – | – | – | – | – | – | – | – | – | – | – | – | – | – | – | – | –
N[C@@H](Cc1c[nH]c2ccccc12)C(=O)O [tryptophan, L-tryptophan] | – | – | 5.3 times | 4.2 times | more than 1.5 times | 0.26 fold | 1.1 times | more than 2.5 fold | more than 9 fold | more than 1.5 times | more than 1.5 times | more than 1.5 times | more than 1.5 times | 3.0 times | more than 1.5 times | more than 1.5 times | more than 2.5 times | 1.3 times | 3.3 times | more than 1.5 times
N[C@@H](Cc1ccc(O)cc1)C(=O)O [tyrosine] | 1.26 times | 1.25 times | – | – | – | – | – | – | – | – | – | – | – | – | – | – | – | – | – | –
